Test results: patent US20220356163A1, “SMALL MOLECULE INHIBITORS OF Id PROTEINS” (MEMORIAL SLOAN KETTERING CANCER CENTER, priority 2019, published 2022)

Test system: choroidal neovascularization
Test: Laser-induced choroidal neovascularization (CNV) model of AMD
Assay type: in vivo, mouse
Conditions: intravitreal days 1 and 7; 10 μg AGX51E2, 40 μg Aflibercept
Excerpt: Mouse mode/s of ocular neovascularization. CNV was induced as previously described. Tobe et al., Am. J. Pathol., 153, 1641-1646 (1998). Briefly, 4-6 week-old female Id1^−/− or Id3^−/− mice and littermate control Id1^+/+ or Id3^+/+ mice (all in C57BL/6 background) had laser-induced rupture of Bruch's membrane at three locations in each eye and after 14 days mice were euthanized, eyes were removed, and choroidal flat mounts were stained with FITC-labeled Griffonia simplicifolia lectin (Vector Laboratories, Burlingame, Calif.) which selectively stains vascular cells (n=12 mice per group). Flat mounts were examined by fluorescence microscopy and the area of each CNV was measured by image analysis with Image-Pro Plus software (Media Cybernetics, Silver Spring, Md.) by an observer masked with respect to experimental groups. In other experiments, wild type 4-6 week-old, female, C57BL/6 mice had rupture of Bruch's membrane in each eye followed by intravitreal injection of 1-30 μg of AGX51 (racemic, E1 or E2) or vehicle in one eye immediately and after 7 days or mice were given twice daily i.p. injections of 500 μg of AGX51 or vehicle for 14 days (n=7-10 mice per group). The area of CNV was measured 14 days after rupture of Bruch's membrane. For Aflibercept and AGX-A treatment experiments, rupture of Bruch's membrane was carried out and then mice were treated with 40 μg of Aflibercept, 10 μg of AGX51E2, 1-5 μg of AGX51, 1-5 μg of AGX-A, DMSO or combinations. The mice were 4-6 week-old female C57BL/6. After 14 days, the mice were euthanized and CNV was measured as described above.

Aflibercept: clinically approved treatment for AMD, a VEGF trap
CNV area, head-to-head and combination treatment: failed to reach statistical significance
